Reference: ChEMBL document CHEMBL5042482, “Novel Allosteric Inhibitors of Deoxyhypusine Synthase against Malignant Melanoma: Design, Synthesis, and Biological Evaluation” (J Med Chem, 2021)
≈ marks a conversion by molar mass, not a printed value.

What was measured:
B16 = test: Cytotoxicity against mouse B16 cells assessed as reduction in cell viability incubated for 24 hrs by CCK-8 assay; format: functional, cell-based; details: B16, 24 h
Deoxyhypusine synthase = target: T1, Deoxyhypusine synthase (Homo sapiens, UniProt P49366); test: Inhibition of DHPS (unknown origin ) incubated for 30 mins by NAD/NADH-Glow assay
T1 sequence (P49366 whole entry): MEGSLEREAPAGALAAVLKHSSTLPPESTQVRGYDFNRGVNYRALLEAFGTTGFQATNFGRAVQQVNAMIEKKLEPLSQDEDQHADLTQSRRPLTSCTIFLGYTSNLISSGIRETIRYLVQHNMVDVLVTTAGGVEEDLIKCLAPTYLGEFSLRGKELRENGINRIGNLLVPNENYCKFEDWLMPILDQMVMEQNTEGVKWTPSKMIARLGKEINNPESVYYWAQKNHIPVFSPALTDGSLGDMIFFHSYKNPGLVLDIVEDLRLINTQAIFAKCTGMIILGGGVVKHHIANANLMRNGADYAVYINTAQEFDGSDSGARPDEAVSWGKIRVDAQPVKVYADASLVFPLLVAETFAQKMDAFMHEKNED

A-375 [1] = test: Cytotoxicity against human A-375 cells assessed as reduction in cell viability incubated for 24 hrs by CCK-8 assay; format: functional, cell-based; details: A-375, 24 h
[2] = (§1) Cytotoxicity against human HaCaT cells assessed as reduction in cell viability incubated for 24 hrs by CCK-8 assay; format: toxicity, cell-based; details: HaCaT cells
SK-MEL-28 = test: Cytotoxicity against human SK-MEL-28 cells assessed as reduction in cell viability incubated for 24 hrs by CCK-8 assay; format: functional, cell-based; details: SK-MEL-28, 24 h
[3] = Toxicity in Sprague-Dawley rat assessed as effect on serum Glu level at 160 mg/kg, ip (reference value: 2.65 to 7.65 mmol/L); format: organism-based; details: in vivo
[4] = Clearance in Sprague-Dawley rat at 160 mg/kg, ip by UHPLC-MS analysis; format: ADME, organism-based; details: in vivo
[5] = AUC (0 to t) in Sprague-Dawley rat at 160 mg/kg, ip by UHPLC-MS analysis; format: ADME, organism-based; parameters: dose 160 mg/kg; details: in vivo
[6] = Half life in Sprague-Dawley rat at 160 mg/kg, ip by UHPLC-MS analysis; format: ADME, organism-based; details: in vivo
[7] = Toxicity in Sprague-Dawley rat assessed as effect on serum AST level at 160 mg/kg, ip (reference value: 69.70 to 332.90 U/L); format: organism-based; details: in vivo
[8] = Toxicity in Sprague-Dawley rat assessed as effect on serum ALT level at 160 mg/kg, ip (reference value: 33.70 to 98.70 U/L); format: organism-based; details: in vivo
[9] = AUC (0 to infinity) in Sprague-Dawley rat at 160 mg/kg, ip by UHPLC-MS analysis; format: ADME, organism-based; parameters: route intraperitoneal, time infinity, dose 160 mg/kg; details: in vivo
A-375 [10] = test: Anticancer activity against human A-375 cells xenografted in BALB/c mouse assessed as tumor growth inhibition at 80 mg/kg, ip treated every 3 days measured after 3 weeks relative to control; format: functional; details: A-375, ip, 504 h, read-out: TGI
[11] = Aqueous solubility of compound; format: physicochemical; details: buffer
[12] = Effect on intracellular ROS content in human HaCaT cells by DCFH-DA staining-based method; format: toxicity, cell-based
[13] = Acute toxicity in zebra fish assessed as lethal concentration measured for 96 hrs; parameters: species or system Danio rerio; details: zebrafish
[14] = Volume of distribution in Sprague-Dawley rat at 160 mg/kg, ip by UHPLC-MS analysis; format: ADME, organism-based; details: in vivo
[15] = Toxicity in Sprague-Dawley rat assessed as effect on serum CRE level at 160 mg/kg, ip (19.43 to 64.97 micromol/L); format: organism-based; details: in vivo
HaCaT = test: as §1; format: toxicity, cell-based; details: hacat, 24 h

Structure (SMILES)	IC50 (Deoxyhypusine synthase) [µM]	IC50 (B16) [µM]	IC50 (A-375 [1]) [µM]	CC50 at 24 h [2] [µM]	IC50 (SK-MEL-28) [µM]	also measured
COc1ccccc1Oc1c(N)nc(-c2ccc(C)cc2)nc1Cl	59.1	17.4	> 80	6.3		
COc1ccccc1Oc1c(N)nc(-c2cccc(I)c2)nc1Cl	38.7	27.6	2.2		4.66	
COc1ccccc1Oc1c(N)nc(-c2ccc(Br)cc2)nc1Cl	0.014	4.44	0.063	58.6	0.014	Activity [3]: 4.345 mmol/L; CL/F [4]: 44.6 L/h/kg; AUC(0-t) [5]: 2.4 µg·h/mL; half-life [6]: 3.66 h; Activity [7]: 113.1 U/L; Activity [8]: 80.47 U/L; AUC(0-inf) [9]: 5.66 µg·h/mL; inhibition in vivo at 80 mg/kg (A-375 [10]): 50.3%; logS0 [11]: -4.416; Activity [12]: Non-Toxic; LC50 at 96 h [13]: 3750 µg/mL (≈ 9.23 mM); Vd [14]: 228.602 L/kg; Activity [15]: 24.375 µmol/L
COc1ccccc1Oc1c(N)nc(-c2ccc(Br)cc2)nc1OCCO	11.8	11.8	10.3		4.4	
COc1ccccc1Oc1c(N)nc(-c2ccc(Cl)cc2)nc1OCCO	38.1	7.74	> 80		> 80	
COc1ccc(-c2nc(N)c(Oc3ccccc3OC)c(Cl)n2)cc1	18.2	47.8	> 80	8.2		
COc1cccc(-c2nc(N)c(Oc3ccccc3OC)c(OCCO)n2)c1	80	30.4		12.7		
COc1ccccc1Oc1c(N)nc(-c2cccc(Cl)c2)nc1Cl	20	17.9	38.3	> 80	19.4	
COc1ccccc1Oc1c(N)nc(-c2ccccc2F)nc1Cl	12.9	13.8	> 80	> 80		
COc1ccc(-c2nc(N)c(Oc3ccccc3OC)c(OCCO)n2)cc1		18.1				
COc1ccccc1Oc1c(N)nc(-c2ccccc2)nc1OCCO	53.7	31.1	> 80		> 80	
COc1ccccc1Oc1c(N)nc(-c2cccc(C)c2)nc1Cl	33.7	13.1	65.3	11.2	54	
COc1ccccc1Oc1c(N)nc(-c2cccc(F)c2)nc1Cl		21.7		17		
COc1ccccc1Oc1c(N)nc(-c2cccc(Br)c2)nc1Cl	35.8	24.6		16.1		
COc1ccccc1Oc1c(NS(=O)(=O)c2ccc(C(C)(C)C)cc2)nc(-c2ncccn2)nc1OCCO [BOSENTAN]	60.8	> 80	67.4		53.6	

More lines, in order of falling IC50 (Deoxyhypusine synthase), values ahead:

IC50 (Deoxyhypusine synthase) [µM]	Structure (SMILES)	IC50 (B16) [µM]	IC50 (A-375 [1]) [µM]	CC50 at 24 h [2] [µM]	IC50 (SK-MEL-28) [µM]	also measured
5.43	COc1ccccc1Oc1c(N)nc(-c2ccccc2F)nc1OCCO	11.8	> 80	39.5		
4.42	COc1ccccc1Oc1c(N)nc(-c2cccc(Cl)c2)nc1OCCO	5.01	30.2		4.17	
4.31	COc1ccccc1Oc1c(N)nc(-c2cccc(Br)c2)nc1OCCO	21.9	0.65		4.04	
2.38	COc1ccccc1Oc1c(N)nc(-c2ccc(F)cc2)nc1OCCO	30.1	15.9	15.1	20.1	
2.29	COc1ccccc1Oc1c(N)nc(-c2ccc(I)cc2)nc1OCCO	19.6				
1.72	N=C(N)NCCCCCCCN	5.25	1.48	3.96	0.79	
1.17	COc1ccccc1Oc1c(N)nc(-c2cccc(C)c2)nc1OCCO	70.9	1.38		14.7	
0.64	COc1ccccc1Oc1c(N)nc(-c2ccc(F)cc2)nc1Cl	2.99	28.2	42.6	31.9	
0.56	COc1ccccc1Oc1c(N)nc(-c2cccc(I)c2)nc1OCCO	20.3	1.23		11.2	
0.53	COc1ccccc1Oc1c(N)nc(-c2ccccc2)nc1Cl	4.61	7.22		3.14	CC50 (HaCaT): Not Active
0.33	COc1ccccc1Oc1c(N)nc(-c2cccc(F)c2)nc1OCCO	20.9	8.53		3.21	
0.32	COc1ccccc1Oc1c(N)nc(Cc2ccccc2)nc1OCCO	47.4	0.2		14	
0.18	COc1ccccc1Oc1c(N)nc(-c2ccc(I)cc2)nc1Cl	5.4	0.48		1.25	
0.18	COc1ccccc1Oc1c(N)nc(-c2ccc(C)cc2)nc1OCCO	8.43	2.38	56.6	6.19	
0.1	COc1ccccc1Oc1c(N)nc(-c2ccc(Cl)cc2)nc1Cl	18.8	1.03		0.12	
0.05	COc1ccccc1Oc1c(N)nc(Cc2ccccc2)nc1Cl	39.1	15.7	30.6	8.65	
0.04	COc1cccc(-c2nc(N)c(Oc3ccccc3OC)c(Cl)n2)c1	23.6	24.6	14		
